Assay results as given in US12606572B2, “Substituted heterocycles and uses thereof” (Kumquat Biosciences Inc., priority 2023, dated 2026).

Experiments:
KRAS WT = molecular target: T1, KRAS WT (Homo sapiens, UniProt P01116); assay: HTRF assay, interaction of GST-tagged K-Ras with His-tagged hSOS1 (KRAS wildtype); type: biochemical; conditions: <500 nM, read-out: Inhibition of KRAS WT (IC50)
T1 construct: made in house; host or cells: E. coli BL21 (DE3)
From the text: (§1) This assay can be also used to assess a selective inhibition or reduction of signaling output of a mutant Ras protein relative to a wildtype, or relative to a different mutant Ras protein. For example, the equilibrium interaction of wildtype KRAS or K-Ras mutant (e.g., wildtype or a mutant thereof) with SOS1 (e.g., hSOS1) can be assessed as a proxy or an indication for the ability of a subject compound to bind and inhibit Ras protein. The HTRF assay detects from (i) a fluorescence resonance energy transfer (FRET) donor (e.g., antiGST-Europium) that is bound to GST-tagged K-Ras mutant to (ii) a FRET acceptor (e.g., anti-6His-XL665) bound to a His-tagged hSOS1.
(§2) The assay buffer can contain ˜5 mM HEPES pH 7.4, ˜150 mM NaCl, ˜1 mM DTT, 0.05% BSA and 0.0025% (v/v) Igepal. A Ras working solution is prepared in an assay buffer containing typically a suitable amount of the protein construct (e.g., GST-tagged K-Ras mutant) and the FRET donor (e.g., antiGST-Eu(K) from Cisbio, France). A SOS1 working solution is prepared in an assay buffer containing suitable amount of the protein construct (e.g., His-hSOS1) and the FRET acceptor (e.g., anti-6His-XL665 from Cisbio, France). A suitable amount of the protein construct will depend on the range of activity or range of IC50 values being detected or under investigation. For detecting an IC50 within a range of 500 nM, the protein constructs of the same range of molarity can be utilized.
(§3) A fixed volume of DMSO with or without test compound is transferred into a 384-well plate. Ras working solution is added to all wells of the test plate. SOS1 working solution is added to all wells except for those that are subsequently filled with inhibitor control solution. Upon incubation for about 10 minutes or longer, the fluorescence is measured with a M1000Pro plate reader (Tecan) using HTRF detection (excitation 337 nm, emission 1: 620 nm, emission 2: 665 nm). Compounds are tested in duplicate at different concentrations (for example, 10 μM, 2.5 μM, 0.63 μM, 0.16 μM, 0.04 μM, 0.01 μM test compound). The ratiometric data (i.e., emission 2 divided by emission 1) is used to calculate IC50 values against Ras using GraphPad Prism (GraphPad software). Signaling output measured in terms of IC50 values can be obtained and a ratio of IC50 against one mutant relative to another mutant can be calculated. For instance, a selective reduction of K-Ras G12S signaling output can be evidenced by a ratio greater than one. In particular, a selective reduction of K-Ras G12S signaling relative to K-Ras WT signaling is evidenced if the ratio of IC50 (against K-Ras WT) to IC50 (against K-Ras G12S) is greater than 1.

KRAS G12S = molecular target: T2, KRAS G12S (Homo sapiens, UniProt P01116, G12S); assay: HTRF assay, interaction of GST-tagged K-Ras with His-tagged hSOS1 (KRAS G12S); type: biochemical; conditions: <500 nM, read-out: Inhibition of KRAS G12S (IC50)
T2 construct: made in house; host or cells: E. coli BL21 (DE3)
From the text: as §1, §2, §3

T2 sequence (P01116 1-188 isoform P01116-2 G12S): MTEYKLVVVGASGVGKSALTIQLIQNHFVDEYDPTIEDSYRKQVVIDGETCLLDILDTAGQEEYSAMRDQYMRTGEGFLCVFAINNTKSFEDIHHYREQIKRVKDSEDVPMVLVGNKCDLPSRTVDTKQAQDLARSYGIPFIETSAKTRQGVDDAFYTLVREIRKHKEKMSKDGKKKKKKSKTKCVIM
T1 sequence (P01116 1-188 isoform P01116-2): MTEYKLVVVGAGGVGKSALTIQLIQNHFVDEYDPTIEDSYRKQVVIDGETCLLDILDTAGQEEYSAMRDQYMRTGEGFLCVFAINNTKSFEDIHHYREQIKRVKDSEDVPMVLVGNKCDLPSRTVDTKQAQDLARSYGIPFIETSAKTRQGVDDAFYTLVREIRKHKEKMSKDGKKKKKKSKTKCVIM

Structure (SMILES)	IC50 (KRAS WT)	IC50 (KRAS G12S)
C[C@@H]1[C@H](N2C[C@H](C)Oc3c(Cl)c(-c4ccc(F)c5sc(N)c(C#N)c45)c(F)c4nc(OC[C@@]56CCCN5C[C@H](F)C6)nc2c34)CCN1C(=O)n1cnc(Cl)n1 (atropisomer, axis not shown; (aS)) [Compound 407, 2-amino-4-((6S,9R)-8-chloro-4-((2R,3R)-1-(3-chloro-1H-1,2,4-triazole-1-carbonyl)-2-methylpyrrolidin-3-yl)-10-fluoro-2-(((2R,7aS)-2-fluorotetrahydro-1H-pyrrolizin-7a (5H)-yl)methoxy)-6-methyl-5,6-dihydro-4H-[1,4]oxazepino[5,6,7-de]quinazolin-9-yl)-7-fluorobenzo[b]thiophene-3-carbonitrile]	< 500 nM	< 500 nM
C[C@H](O)[C@H]1COc2c(Cl)c(-c3ccc(F)c4sc(N)c(C#N)c34)c(F)c3nc(OC[C@@]45CCCN4C[C@H](F)C5)nc(c23)N1C[C@H]1CN(C(=O)n2ccnc2)[C@@H]1C (single isomer, unassigned) [Compound 402]	< 500 nM	< 500 nM
CC(C)[C@@H]1[C@H](CN2CCOc3c(Cl)c(-c4ccc(F)c5sc(N)c(C#N)c45)c(F)c4nc(OC[C@@]56CCCN5C[C@H](F)C6)nc2c34)CN1C(=O)n1cnc(F)n1 (single isomer, unassigned) [Compound 408]	< 500 nM	< 500 nM
CC(C)[C@@H]1[C@@H](CN2c3nc(OC[C@@]45CCCN4C[C@H](F)C5)nc4c(F)c(-c5ccc(F)c6sc(N)c(C#N)c56)c(Cl)c(c34)OC[C@@H]2[C@H](C)O)CN1C(=O)n1ccnc1 (single isomer, unassigned) [Compound 410]	< 500 nM	< 500 nM
CC1([C@@H]2[C@H](CN3CCOc4c(Cl)c(-c5ccc(F)c6sc(N)c(C#N)c56)c(F)c5nc(OC[C@@]67CCCN6C[C@H](F)C7)nc3c45)CN2C(=O)n2cnc(F)n2)CC1 (single isomer, unassigned) [Compound 420]	< 500 nM	< 500 nM
C[C@H]1COc2c(Cl)c(-c3ccc(F)c4sc(N)c(C#N)c34)c(F)c3nc(OC[C@@]45CCCN4C[C@H](F)C5)nc(c23)N1C[C@@H]1CN(C(=O)n2ccnc2)[C@@H]1C1(C)CC1 (single isomer, unassigned) [Compound 421]	–	< 500 nM
C[C@@H]1[C@H](N2CCOc3c(Cl)c(-c4ccc(F)c5sc(N)c(C#N)c45)c(F)c4nc(OC[C@@]56CCCN5C[C@H](F)C6)nc2c34)CCN1C(=O)n1cnc(F)n1 (single isomer, unassigned) [Compound 426]	< 500 nM	< 500 nM
C[C@@H]1[C@H](N2c3nc(OC[C@@]45CCCN4C[C@H](F)C5)nc4c(F)c(-c5ccc(F)c6sc(N)c(C#N)c56)c(Cl)c(c34)OC[C@@H]2C)CCN1C(=O)n1ccnc1 (single isomer, unassigned) [Compound 432]	< 500 nM	< 500 nM
CC(C)(C)[C@@H]1[C@H](CN2CCOc3c(Cl)c(-c4ccc(F)c5sc(N)c(C#N)c45)c(F)c4nc(OC[C@@]56CCCN5C[C@H](F)C6)nc2c34)CN1C(=O)n1cnc(F)n1 (single isomer, unassigned) [Compound 434]	< 500 nM	< 500 nM
C[C@H](O)[C@H]1COc2c(Cl)c(-c3ccc(F)c4sc(N)c(C#N)c34)c(F)c3nc(OC[C@@]45CCCN4C[C@H](F)C5)nc(c23)N1C1CC(CN(C)C(=O)n2ccnc2)C1 (stereo partly drawn) [Compound 401, N-((3-((5R)-9-(2-amino-3-cyano-7-fluorobenzo[b]thiophen-4-yl)-8-chloro-10-fluoro-2-(((2R,7aS)-2-fluorotetrahydro-1H-pyrrolizin-7a(5H)-yl)methoxy)-5-((S)-1-hydroxyethyl)-5,6-dihydro-4H-[1,4]oxazepino[5,6,7-de]quinazolin-4-yl)cyclobutyl)methyl)-N-methyl-1H-imidazole-1-carboxamide]	–	< 500 nM
CN1[C@H](C2CC2)[C@@H]1C(=O)N1CC(CN2CCOc3c(Cl)c(-c4ccc(F)c5sc(N)c(C#N)c45)c(F)c4nc(OC[C@@]56CCCN5C[C@H](F)C6)nc2c34)C1 (stereo partly drawn) [Compound 440, 2-amino-4-(8-chloro-4-((1-((2R,3R)-3-cyclopropyl-1-methylaziridine-2-carbonyl)azetidin-3-yl)methyl)-10-fluoro-2-(((2R,7aS)-2-fluorotetrahydro-1H-pyrrolizin-7a (5H)-yl)methoxy)-5,6-dihydro-4H-[1,4]oxazepino[5,6,7-de]quinazolin-9-yl)-7-fluorobenzo[b]thiophene-3-carbonitrile]	–	< 500 nM

Second part, the molecule after the results:

IC50 (KRAS WT)	IC50 (KRAS G12S)	Structure (SMILES)
< 500 nM	< 500 nM	C[C@H](O)[C@H]1COc2c(Cl)c(-c3ccc(F)c4sc(N)c(C#N)c34)c(F)c3nc(OC[C@@]45CCCN4C[C@H](F)C5)nc(c23)N1C[C@@H]1CN(C(=O)n2ccnc2)[C@@H]1C (single isomer, unassigned) [Compound 446]
< 500 nM	< 500 nM	Cc1c(C#N)ncn1C(=O)N1C[C@@H](CN2CCOc3c(Cl)c(-c4ccc(F)c5sc(N)c(C#N)c45)c(F)c4nc(OC[C@@]56CCCN5C[C@H](F)C6)nc2c34)[C@H]1C1(C)CC1 (single isomer, unassigned) [Compound 452]
< 500 nM	< 500 nM	Cc1cn(C(=O)N(C)[C@@H]2C[C@@H]3CCOc4c(Cl)c(-c5ccc(F)c6sc(N)c(C#N)c56)c(F)c5nc(OC[C@@]67CCCN6C[C@H](F)C7)nc(c45)N3C2)cn1 (single isomer, unassigned) [Compound 472]
< 500 nM	< 500 nM	C[C@@H]1[C@H](N2CCOc3c(Cl)c(-c4ccc(F)c5sc(N)c(C#N)c45)c(F)c4nc(OC[C@@]56CCCN5C[C@H](F)C6)nc2c34)CCN1C(=O)n1ccnc1 (single isomer, unassigned) [Compound 474]
< 500 nM	< 500 nM	Cc1ncn(C(=O)N2C[C@@H](CN3CCOc4c(Cl)c(-c5ccc(F)c6sc(N)c(C#N)c56)c(F)c5nc(OC[C@@]67CCCN6C[C@H](F)C7)nc3c45)[C@H]2C2(C)CC2)c1C (single isomer, unassigned) [Compound 476]
–	< 500 nM	N#Cc1cn(C(=O)N2CC(CN3CCOc4c(Cl)c(-c5ccc(F)c6sc(N)c(C#N)c56)c(F)c5nc(OC[C@@]67CCCN6C[C@H](F)C7)nc3c45)C2)cn1 [Compound 436, 1-(3-((9-(2-amino-3-cyano-7-fluorobenzo[b]thiophen-4-yl)-8-chloro-10-fluoro-2-(((2R,7aS)-2-fluorotetrahydro-1H-pyrrolizin-7a(5H)-yl)methoxy)-5,6-dihydro-4H-[1,4]oxazepino [5,6,7-de]quinazolin-4-yl)methyl)azetidine-1-carbonyl)-1H-imidazole-4-carbonitrile]
–	< 500 nM	CC(CN(C)C(=O)n1ccnc1)N1c2nc(OC[C@@]34CCCN3C[C@H](F)C4)nc3c(F)c(-c4ccc(F)c5sc(N)c(C#N)c45)c(Cl)c(c23)OC[C@@H]1[C@H](C)O (stereo partly drawn) [Compound 451, N-(2-((5R)-9-(2-amino-3-cyano-7-fluorobenzo[b]thiophen-4-yl)-8-chloro-10-fluoro-2-(((2R,7aS)-2-fluorotetrahydro-1H-pyrrolizin-7a(5H)-yl)methoxy)-5-((S)-1-hydroxyethyl)-5,6-dihydro-4H-[1,4]oxazepino [5,6,7-de]quinazolin-4-yl)propyl)-N-methyl-1H-imidazole-1-carboxamide]
–	< 500 nM	CC1([C@@H]2[C@H](CN3CCOc4c(Cl)c(-c5ccc(F)c6sc(N)c(C#N)c56)c(F)c5nc(OC[C@@]67CCCN6C[C@H](F)C7)nc3c45)CN2C(=O)n2ccnc2)CC1 [Compound 486, 4-(4-(((2S,3R)-1-(1H-imidazole-1-carbonyl)-2-(1-methylcyclopropyl)azetidin-3-yl)methyl)-8-chloro-10-fluoro-2-(((2R,7aS)-2-fluorotetrahydro-1H-pyrrolizin-7a(5H)-yl)methoxy)-5,6-dihydro-4H-[1,4]oxazepino [5,6,7-de]quinazolin-9-yl)-2-amino-7-fluorobenzo[b] thiophene-3-carbonitrile]
